Data taken from US12440529B2, “Topical Croton lechleri compositions and their use in the treatment of a bacterial colonization or primary or secondary bacterial infection of an underlying skin disorder” (ALPHYN BIOLOGICS, INC., priority 2020, dated 2025).

Tested on: Enterococcus faecalis (ATCC 29212) (EFAECL)
Experiment: Agar Well Diffusion Assay (Kirby-Bauer disks), zone of inhibition
Type: cell-based
Conditions: control antibiotic K-B disk
Experimental: Isolates were subcultured the day before the Agar Well Diffusion Assay was performed. On the day of the assay, a bacterial suspension (0.08-0.12 MacFarland units) of each bacteria isolate was made in Trypticase Soy Broth (TSB), and these suspensions were used to plate a lawn of bacterial organisms on Mueller-Hinton agar or Mueller-Hinton sheep's blood agar. […] The next day, the width of the zone of growth inhibition surrounding each K-B disk was recorded (in mm). The larger the number, the greater the zone of inhibition, and the greater the inhibition of growth of the target organisms.
Therefore, all dilutions were made into DMSO and a K-B disk containing 25 uL DMSO was included in all experiments as a vehicle control.
When assessing antibiotic effects in a K-B type test, the minimum zone of inhibition for considering a positive test varies depending on the antibiotic tested with anything more than 0 mm considered positive in some cases or as much as 10 mm or more needed for others.

## Gentamicin [GM]
  Zone of Inhibition: GM 5 MM

## CC1(C)S[C@@H]2[C@H](NC(=O)[C@H](N)c3ccccc3)C(=O)N2[C@H]1C(=O)O [AMP, Ampicillin]
  Zone of Inhibition: AMP 8 MM
